Laboratory results: patent US5834452A, “1- or 6-hydroxylated steroids” (Roussel Uclaf, priority 1996, dated 1998)

Tests used:
[1] = molecular target: T1, Human progesterone receptor (HPR) (Homo sapiens, UniProt P06401); experiment: Relative bond affinity (RBA), recombinant human progestogen receptor, charcoal dextran technique; assay type: binding; settings: 24 h at 0° C., Progesterone = 100
T1 construct: made in house; host or cells: SF9 insect cells (ATCC CRL1711), baculovirus, lysate supernatant
T1 sequence (P06401 1-933): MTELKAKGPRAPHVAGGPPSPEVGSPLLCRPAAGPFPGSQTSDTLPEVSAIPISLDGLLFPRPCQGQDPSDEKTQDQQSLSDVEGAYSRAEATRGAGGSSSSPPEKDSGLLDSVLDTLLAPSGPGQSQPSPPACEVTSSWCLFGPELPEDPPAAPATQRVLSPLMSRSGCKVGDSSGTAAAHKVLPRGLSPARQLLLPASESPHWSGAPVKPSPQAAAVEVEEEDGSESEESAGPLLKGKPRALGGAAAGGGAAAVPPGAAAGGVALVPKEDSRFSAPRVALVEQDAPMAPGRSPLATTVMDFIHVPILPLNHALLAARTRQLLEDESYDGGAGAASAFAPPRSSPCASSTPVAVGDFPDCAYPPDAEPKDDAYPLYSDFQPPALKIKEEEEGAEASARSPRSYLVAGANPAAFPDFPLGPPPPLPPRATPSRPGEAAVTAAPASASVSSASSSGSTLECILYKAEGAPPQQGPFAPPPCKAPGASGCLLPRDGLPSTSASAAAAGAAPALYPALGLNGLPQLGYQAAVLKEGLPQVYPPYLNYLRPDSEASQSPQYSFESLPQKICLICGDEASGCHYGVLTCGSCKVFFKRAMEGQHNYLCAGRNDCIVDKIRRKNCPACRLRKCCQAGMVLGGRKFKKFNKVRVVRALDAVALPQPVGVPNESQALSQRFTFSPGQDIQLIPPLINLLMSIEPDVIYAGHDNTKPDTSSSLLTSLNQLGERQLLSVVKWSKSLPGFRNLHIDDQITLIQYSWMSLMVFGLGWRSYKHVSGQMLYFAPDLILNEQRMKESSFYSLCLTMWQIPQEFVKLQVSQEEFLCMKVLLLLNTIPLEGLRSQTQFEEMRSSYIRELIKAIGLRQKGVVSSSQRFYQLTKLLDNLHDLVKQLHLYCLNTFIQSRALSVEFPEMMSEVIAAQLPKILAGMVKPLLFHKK
Excerpt: The human recombinant receptor (HGR, HPR, HAR, HMR, HER) was used.
Human progesterone receptor (HPR):
The recombinant human progestogen receptor was obtained by the superexpression in a cell system of insects--Baculovirus, according to the methodology described by Webb et al (Journal of Methods in Cell and Molecular Biology, (1990) Vol. 2 No. 4, p. 173-188) and the application of which was described for the expression of human hormonal receptors, for example the human glucocorticoid receptor (Srinivasan et al, Molecular Endocrinology, (1990) Vol. 4 No. 2, p. 209-216.
The BaculoGold Transfection Kit (PharMingen, reference 21000K) was used to insert the cDNA fragment described by Kastner et al (The EMBO Journal, (1990), Vol. 9 No. 5, p. 1603-1614), containing the region coding for the human progestogen receptor and to prepare the corresponding recombinant virus. The recombinant virus obtained in this way was used to express the progestogen receptor in SF9 insect cells (ATCC CRL1711), according to the known methodology cited previously.
2×10^7 to 2.5×10^7 SF9 cells were cultured in a 175 ml "Falcon" flask in the TNM-FH medium supplemented with 10% fetal calf serum (FCS) and with 50 micrograms/ml of gentamycin. After infection, then incubation at 27° C. for 40 to 42 hours, the cells were taken up in 1 ml of lysis buffer (1), lysed by 2 cycles of freezing-thawing (-80° C./ 0° C.), then centrifuged at 4° C. for 30 minutes at 20,900 g. The supernatant, containing the recombinant human progestogen receptor, was stored in liquid nitrogen in quantities of 1 ml.
The supernatant was diluted at the time of use with 10 mM Tris buffer, 0.25M saccharose, HCl pH 7.4 containing 0.1% of gelatin and then incubated at 0° C. for 24 hours with a constant concentration (T) of tritiated 17α, 21-dimethyl-19-nor-Δ^4,9 pregnadiene-3,20-dione in the presence of increasing concentrations of either unlabelled progesterone (0-2500×10^-9 M), or the unlabelled product to be tested (1 to 25000×10^-9 M). The concentration of bound tritiated 17,21-dimethyl-19-nor-Δ^4,9 -pregnadiene-3,20-dione (B) was then measured in each incubate using the charcoal dextran adsorption technique.
Calculation of the relative bond affinity (RBA).
The following two curves were drawn: the percentage of bound tritiated hormone B/BO as a function of the logarithm of the concentration of unlabelled reference hormone or as a function of the logarithm of the concentration of unlabelled test product. The straight line of the following equation was determined: […]
The relative bond affinity (RBA) of the test product was determined by the equation: […]

[2] = tested on: endometrial proliferation (uterine lace); experiment: Progestomimetic activity: endometrial transformation in the rabbit (Clauberg-McPhail test); assay type: in vivo; set-up: key to Maximal activity on the uterine lace (McPhail index) / Average uterine lace (McPhail Index): McPhail scale 0–4 with 0.5 steps (endometrial proliferation); settings: for Average uterine lace (McPhail Index): s/c, day 8 to day 11
Protocol: 2. --Determination of the progestomimetic activity of the products of the invention: Endometrial transformation in the rabbit. The animals used were impuberal female rabbits which were 40-45 days old. The animals were treated with estradiol (5 ug/0.2 ml/rabbit in solution of corn oil, 10% ethanol) by subcutaneous route from day 1 to day 5, then the product to be studied was administered from day 8 to day 11. On day 12, the animals were sacrificed and a median portion of each uterine cornua was removed from each animal and fixed in Bouin's liquid for histological study. After fixing, the samples were dehydrated, included, cut, mounted, the paraffin was removed and then the sample was stained with hemalum-eosin-saffron. […] Then, for each of the cornua, a semi-quantitative evaluation of the endometrial proliferation (uterine lace) was carried out by the McPhail scale from 0 to 4 with 0.5 intermediates and the two figures were averaged. Similarly, the degree of hypertrophy of the cornua was evaluated by the same scale. At higher magnification, morphological observations of the mucous membrane or the myometrium could possibly be formulated. The 1-OH metabolite (product A) was tested at doses of 10, 100, 1000 μg/kg by subcutaneous route as well as orally at a dose of 1000 μg/kg. The 6-OH metabolite (product B) was tested at doses of 100, 1000 and 10000 μg/kg subcutaneously. As a control, progesterone was administered at doses of 100 and 1000 μg/kg by subcutaneous route. The averages were produced for the uterine lace (McPhail Index).

RBA, Human progestogen receptor [1]	RBA, Human progestogen receptor ([1]; listed as product B)	Compound	Average uterine lace (McPhail Index) ([2]; rabbit, 0,01 mg/kg)	Average uterine lace (McPhail Index) ([2]; rabbit, 0,1 mg/kg)	minimal effective dose ([2]; Oryctolagus cuniculus, rabbit, note on this test, read-out: Dose from which progestomimetic activity starts) [µg/kg]
12	moderate RBA	C[C@H](O)C(=O)[C@@]1(C)CC[C@H]2[C@@H]3C[C@@H](O)C4=CC(=O)CCC4=C3CC[C@@]21C [Product B, [6β, 17β-(S)]-6-hydroxy-17-(2-hydroxy-1-oxopropyl)-17-methyl-Δ^4,9-estradiene-3-one]	1,4	2	
588		C[C@H](O)C(=O)[C@@]1(C)CC[C@H]2[C@@H]3CCC4=CC(=O)CCC4=C3CC[C@@]21C [Trimegestone, [17β-(S)]-17-(2-hydroxy-1-oxopropyl)-17-methyl-Δ^4,9-estradiene-3-one, reference compound]			1
